Converted amounts (≈) assume the structure as drawn.

For this data set the following is noted: buffer; pH 7.4; 200.0 µM.
As usually defined, the kinetic solubility is solubility judged after dilution from a stock solution rather than from solid. `COc1ccc(NC(=O)NC2CCCc3ccccc32)c(OC)c1` (stereo not given): the solubility (kinetic) was 1 µg/mL (≈ 3.06 µM).
The result for `O=C(CNC(=O)c1ccccc1F)NCc1cccnc1` reads more than 43.1 µg/mL; that for `O=C(Cc1c(Cl)cccc1Cl)NC1CC1`, more than 36.6 µg/mL.
The result for `O=C(O)CCn1c(O)c(C=C2N=c3ccccc3=N2)sc1=S` reads more than 50 µg/mL; that for `O=C(CCc1c[nH]c2ccccc12)N1CCCC1`, more than 36.3 µg/mL; that for `Cc1ccc(C)c(S(=O)(=O)NCCN2CCOCC2)c1.Cl`, more than 50.2 µg/mL.
In turn, `Cl.Nc1nc2nc[nH]c2c(=O)[nH]1` gave a kinetic solubility of 21.5 µg/mL.
`Cl.Clc1cccc(OCCN2CCCC2)c1` showed a kinetic solubility of 37.2 µg/mL.
`C=CCNC(=O)[C@H]1N2C(=O)c3ccccc3C2SC1(C)C` (stereo not given in full) returned a kinetic solubility of more than 45.4 µg/mL.
As for `CC(CNC(=O)c1ccc2c(c1)OCO2)c1ccc([N+](=O)[O-])cc1` (stereo not given), the figure is 2 µg/mL (≈ 6.09 µM); as for `COc1ccc(CCNC(=O)COC(=O)Cc2ccccc2[N+](=O)[O-])cc1`, more than 55.9 µg/mL.
As for `Nc1nc(NCC(=O)O)nc(N2CCCCCC2)c1[N+](=O)[O-]`, the solubility (kinetic) worked out at 44.1 µg/mL (≈ 142 µM).
`COc1ccc2c(COC(=O)[C@H](C)NS(=O)(=O)c3ccccc3F)cc(=O)oc2c1` showed a kinetic solubility of 59.1 µg/mL (≈ 136 µM).
In the case of `Cc1onc(-c2ccccc2)c1C(=O)Nc1nncs1`, the solubility (kinetic) is more than 42.9 µg/mL.
As for `CCC(C(=O)OC)n1cnc2c(oc3ccccc32)c1=O` (stereo not given), the figure is more than 42.9 µg/mL; as for `COc1ccc(C(=O)Cn2cc([N+](=O)[O-])nc2C)cc1`, 13.5 µg/mL (≈ 49 µM); as for `Cc1[nH]c2c(C)cccc2c(=O)c1CN1CCCCCC1`, 39.5 µg/mL (≈ 139 µM).
The result for `COc1cc2ccccc2cc1C(=O)Nc1cc(C)ccn1` reads 4.2 µg/mL (≈ 14.4 µM); that for `Cc1ccc(NC(=S)NCc2ccccc2)c(C)c1`, 39.2 µg/mL (≈ 145 µM).
`COc1ccc(NC(=S)Nc2cccc(C)n2)cc1` yielded a solubility (kinetic) of less than 0.2 µg/mL.
As for `O=C(NCc1ccccn1)c1n[nH]c(=O)c2ccccc12`, the figure is more than 42 µg/mL; as for `COc1ccc(C(=O)Nc2ccccc2C(=O)Nc2ccc(C(=O)O)cc2)cc1`, more than 58.6 µg/mL.
In the case of `CN(C)CCCN=Cc1c(O)n(Cc2ccco2)c(=O)[nH]c1=O`, the kinetic solubility is 36.4 µg/mL (≈ 114 µM).
`CC(C)(C)Nc1nc(Cl)nc(NCc2ccccc2)n1` yielded a kinetic solubility of 8 µg/mL (≈ 27.4 µM).
As for `COc1cccc(OCC(O)CNC(C)c2ccccc2)c1.Cl` (stereo not given), the figure is 49.1 µg/mL; as for `CC1(C)C2SCC(=O)N2CCN1CC(=O)NN` (stereo not given), more than 38.8 µg/mL.
In turn, `CC1c2ccsc2CCN1S(=O)(=O)c1cccs1` (stereo not given) had a solubility (kinetic) of 23.5 µg/mL (≈ 78.5 µM).
The result for `Cc1ccc(C(=O)NCCn2ccc3ccccc32)cc1[N+](=O)[O-]` reads 3.9 µg/mL (≈ 12.1 µM).
For the compound `CC(/C=C1\SC(=S)N(CC(=O)O)C1=O)=C\c1ccccc1`, the solubility (kinetic) was more than 47.9 µg/mL.
Turning to `O=c1sc(Nc2ccccc2)nc2ccccc12`, the solubility (kinetic) was found to be 6.5 µg/mL (≈ 25.6 µM).
Compound `COc1ccc(-c2cc(-c3ccc(O)cc3)nc(N)c2C#N)cc1OC` showed a kinetic solubility of 1.7 µg/mL (≈ 4.89 µM).
As for `Cc1nc2ccc([N+](=O)[O-])cc2c(=O)n1Cc1cccc(F)c1`, the figure is 9.1 µg/mL (≈ 29 µM); as for `CN(c1ccccc1)S(=O)(=O)c1ccc(NC(=O)C2CC2)cc1`, 2.3 µg/mL (≈ 6.96 µM).
Take `O=C1CSC2(N1)C1CC3CC(C1)CC2C3` (stereo not given): the solubility (kinetic) came out at 12.5 µg/mL (≈ 56 µM).
The result for `CSc1cccc(-n2ccc(=O)c(C)c2C)c1` reads more than 36.8 µg/mL; that for `CC1CCCC(NC(=O)COC(=O)c2ccc([N+](=O)[O-])s2)C1C` (stereo not given), 15.4 µg/mL (≈ 45.2 µM).
The result for `COc1cccc(C(=O)NC23CC4CC(CC(C4)C2)C3)c1` reads 24.8 µg/mL (≈ 86.9 µM); that for `CS(=O)(=O)N1CCCC(C(=O)Nc2ccccc2Cl)C1` (stereo not given), more than 47.5 µg/mL; that for `CCOc1ccc(S(=O)(=O)N2CCN(c3ccccn3)CC2)cc1`, 1.6 µg/mL (≈ 4.61 µM).
The result for `COc1cc(NC(=O)c2ccccc2)ccc1NC(=O)Cc1ccccc1` reads less than 0.4 µg/mL; that for `NC(=O)c1cc(Cl)ccc1OCC(=O)NC1CC1`, more than 40.3 µg/mL.
`Cc1ccc(NS(=O)(=O)c2cccc3nsnc23)cc1` returned a solubility (kinetic) of 36 µg/mL (≈ 118 µM).
The compound `O=C(NCc1ccccc1)NC(=O)c1ccc(Cl)cc1` had a kinetic solubility of less than 0.3 µg/mL.
As for `CC(C)c1ccccc1OCCCCN1CCCCC1`, the figure is 37.1 µg/mL (≈ 135 µM).
In turn, `COc1ccc(/C=C/C(=O)OCC(=O)Nc2cccc(S(=O)(=O)NC3=NCCCCC3)c2)cc1` came in with a kinetic solubility of 12.4 µg/mL (≈ 25.5 µM).
As for `Clc1cccc(-c2nc(NCC3CCCO3)c3ccccc3n2)c1` (stereo not given), the figure is 1.2 µg/mL (≈ 3.53 µM).
The result for `CCC(=O)OCC(=O)Nc1ncc(C(F)(F)F)cc1Cl` reads more than 46.6 µg/mL; that for `COc1ccc(C(=O)c2cnc[nH]2)cc1`, more than 30.3 µg/mL.
As for `Cc1ccccc1-c1nnc(SCC(=O)NC2CCS(=O)(=O)C2)n1C` (stereo not given), the figure is more than 57.1 µg/mL.
Take `O=c1oc2ccccc2n1Cc1cccc(C(F)(F)F)c1`: the kinetic solubility amounted to 2.2 µg/mL (≈ 7.5 µM).
The result for `CCCS(=O)(=O)N1CCN=C1SCc1cccc(F)c1` reads 39.6 µg/mL (≈ 125 µM); that for `Cc1ccc[n+](CC(=O)N2CCCCC2)c1C.[Br-]`, more than 47 µg/mL; that for `O=C(NCC1CCCO1)c1cccc(Oc2ccccc2)c1` (stereo not given), 40.1 µg/mL (≈ 135 µM).
As for `CC1=Nc2ccccc2/C1=C/c1c(O)n(C)c(=O)[nH]c1=O`, the figure is more than 42.5 µg/mL; as for `COc1ccc(-c2cn3ccc(C)cc3n2)cc1`, 33.1 µg/mL (≈ 139 µM); as for `CN1CC(C(=O)O)Cc2c1ccc1ccccc21` (stereo not given), 31.7 µg/mL (≈ 131 µM).
`Cc1cccc(NC(=S)NC(=O)C2CC2)c1`: the kinetic solubility was more than 35.1 µg/mL.
The result for `Cc1ccc(C(=O)NCCCn2ccnc2)cc1C` reads more than 38.6 µg/mL; that for `Cc1ccc(S(=O)(=O)N2CCCCC2C)cc1[N+](=O)[O-]` (stereo not given), 24.2 µg/mL (≈ 81.1 µM).
As for `Cc1nc2ccccc2n1CCOc1ccccc1`, the figure is more than 37.8 µg/mL.
`COc1ccc(OCCNC(=O)c2ccc(C)cc2)cc1` displayed a kinetic solubility of 36.8 µg/mL (≈ 129 µM).
As for `Cc1noc(NS(=O)(=O)c2ccc(NC(=O)CC(C)C)cc2)c1C`, the figure is more than 52.7 µg/mL; as for `Cc1ccnc(NCc2ccc(Cl)cc2)c1`, 3.7 µg/mL (≈ 15.9 µM).
As for `Cc1ccn2cc(CCNC(=O)COc3ccccc3)nc2c1`, the figure is 40.6 µg/mL (≈ 131 µM).
The result for `CCCCOc1ccc(C(=O)OCC(=O)NC2CCCC2)cc1` reads 5.5 µg/mL (≈ 17.2 µM); that for `O=C(NC(=O)c1cnccc1C(F)(F)F)Nc1ccccc1`, 18.3 µg/mL (≈ 59.2 µM).
With `O=C(NC(=S)Nc1ccccc1Cl)C1CC1`, the solubility (kinetic) is more than 38.2 µg/mL.
Take `CC(C)(C)C(=O)Nc1c(Cl)cccc1OC(F)(F)F`: the solubility (kinetic) was 34.2 µg/mL (≈ 116 µM).
`CCCCCC(=O)NNC1CC(=O)N(c2ccccc2)C1=O` (stereo not given): the kinetic solubility is more than 45.5 µg/mL.
The result for `CN(C)c1nc(N(C)C)nc(N2CC(CCl)OC2=N)n1` (stereo not given) reads more than 45 µg/mL; that for `S=C(NCc1cccnc1)NCc1cccnc1`, 37.4 µg/mL (≈ 145 µM); that for `CC(=O)c1cccc(NC(=S)NC(=O)c2ccccc2C)c1`, 1 µg/mL (≈ 3.2 µM).
`COc1ccc(N2C(=O)CSC2c2ccc(F)c(F)c2)cc1` (stereo not given) registered a solubility (kinetic) of more than 48.2 µg/mL.
Take `NC(=O)c1ccccc1`: the solubility (kinetic) is more than 18.2 µg/mL.
As for `COc1ccc(CN(CCC(c2ccco2)C(C)C)C(C)=O)cc1OC` (stereo not given), the figure is 49.2 µg/mL (≈ 137 µM).
The result for `NC(=O)c1cc(S(=O)(=O)Nc2ccccc2)cs1` reads more than 42.3 µg/mL.
`CC(OC(=O)c1ccc(NC(N)=O)cc1)C(=O)Nc1ccc2c(c1)OCCO2` (stereo not given): the kinetic solubility is more than 57.8 µg/mL.
As for `CCn1ccnc1CN1CCCC(C(=O)c2cc(C)c(OC)c(C)c2)C1` (stereo not given), the figure is 47.6 µg/mL (≈ 134 µM).
The result for `COc1ccc(N2C(=O)CCC2=O)c(OC)c1` reads 33.8 µg/mL (≈ 144 µM); that for `O=c1[nH]c(=S)[nH]c2sc3c(c12)CCCCCC3`, 26.2 µg/mL (≈ 98.4 µM); that for `CC(C)(C)NC(=O)CN1C(=O)/C(=C/c2ccccc2)SC1=S`, 1.1 µg/mL (≈ 3.29 µM).
`O=C(Nc1nc2ccccc2c(=O)s1)c1ccc(F)cc1Cl` had a solubility (kinetic) of 0.9 µg/mL (≈ 2.69 µM).
As for `CN(C)c1cc[n+](CC(=O)c2ccc(Br)cc2)cc1.[Cl-]`, the solubility (kinetic) is 52.8 µg/mL.
For the compound `CC12CC3CC(C)(C1)CC(C(O)CN1CCOCC1)(C3)C2.Cl` (stereo not given), the solubility (kinetic) was more than 49.5 µg/mL.
`COc1ccc(/C=C/C(=O)OCC(=O)N2CCCC2)c(OC)c1`: the kinetic solubility was more than 47.9 µg/mL.

Values taken from PubChem BioAssay AID1996.
